Measurements taken from ChEMBL document CHEMBL4699582, “Discovery of OATD-01, a First-in-Class Chitinase Inhibitor as Potential New Therapeutics for Idiopathic Pulmonary Fibrosis” (J Med Chem, 2020).
Activity calls are given as the source filed them. No cut-off for these calls is given here.

Tests used:
Mus musculus [1] = species on record: Mus musculus; conditions: C57BL/6N, dose 30.0 mg/kg
[2] = Cmax in Balb/c mouse at 10 mg/kg, po administered as single dose by LC-MS/MS analysis; type: ADME, organism-based; parameters: route oral, dose 10 mg/kg; conditions: in vivo
Mus musculus [3] = species on record: Mus musculus; conditions: C57BL/6N, dose 30.0 mg/kg; remark: listed apart in the source
[4] = AUC (0 to 24 hrs) in Beagle dog at 3 mg/kg, iv administered as single bolus dose by LC-MS/MS analysis; type: ADME, organism-based, Canis lupus familiaris; parameters: time < 24 hr, route intravenous, dose 3 mg/kg; conditions: in vivo
[5] = target: Voltage-gated inwardly rectifying potassium channel KCNH2 (Homo sapiens, UniProt Q12809); assay: Inhibition of tracer red binding to human ERG expressed in HEK293 cell membranes measured after 2 to 6 hrs by fluorescence polarization assay
Chain of Voltage-gated inwardly rectifying potassium channel KCNH2 (Q12809 whole entry): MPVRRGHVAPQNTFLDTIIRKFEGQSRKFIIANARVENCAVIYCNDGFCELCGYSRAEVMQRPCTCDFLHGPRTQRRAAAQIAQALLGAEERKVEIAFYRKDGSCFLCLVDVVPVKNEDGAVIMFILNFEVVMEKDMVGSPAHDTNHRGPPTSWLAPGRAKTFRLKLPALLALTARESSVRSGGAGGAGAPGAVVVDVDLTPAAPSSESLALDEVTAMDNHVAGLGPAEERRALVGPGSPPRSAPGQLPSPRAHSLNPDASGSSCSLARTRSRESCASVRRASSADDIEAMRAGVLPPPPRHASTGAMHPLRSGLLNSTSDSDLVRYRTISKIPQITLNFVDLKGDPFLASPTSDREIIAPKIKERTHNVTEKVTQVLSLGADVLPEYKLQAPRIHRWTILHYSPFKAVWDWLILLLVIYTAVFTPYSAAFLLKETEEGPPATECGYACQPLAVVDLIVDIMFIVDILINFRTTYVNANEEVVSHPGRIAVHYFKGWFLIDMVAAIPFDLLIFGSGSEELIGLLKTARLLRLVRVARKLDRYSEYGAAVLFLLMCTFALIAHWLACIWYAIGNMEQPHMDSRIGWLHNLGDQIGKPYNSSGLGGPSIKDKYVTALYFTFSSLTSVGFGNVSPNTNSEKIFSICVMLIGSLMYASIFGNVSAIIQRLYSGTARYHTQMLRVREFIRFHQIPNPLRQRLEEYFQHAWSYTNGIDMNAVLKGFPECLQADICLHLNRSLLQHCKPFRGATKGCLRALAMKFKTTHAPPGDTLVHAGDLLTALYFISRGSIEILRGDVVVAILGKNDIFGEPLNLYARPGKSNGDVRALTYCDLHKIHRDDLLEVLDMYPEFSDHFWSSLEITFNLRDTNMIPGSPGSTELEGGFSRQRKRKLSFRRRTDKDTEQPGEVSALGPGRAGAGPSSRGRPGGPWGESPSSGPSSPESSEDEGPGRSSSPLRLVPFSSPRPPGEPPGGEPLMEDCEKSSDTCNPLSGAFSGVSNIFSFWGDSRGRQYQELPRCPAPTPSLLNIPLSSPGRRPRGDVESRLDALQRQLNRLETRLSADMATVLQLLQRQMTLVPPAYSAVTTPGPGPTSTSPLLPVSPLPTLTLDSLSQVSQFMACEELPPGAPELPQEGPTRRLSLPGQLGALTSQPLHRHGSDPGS

[6] = Drug uptake in C57BL/6N mouse lung at 30 mg/kg, po qd administered via gavage measured 24 hrs post dose; type: ADME, organism-based; conditions: in vivo
[7] = target: Multidrug resistance-associated protein 1 (Homo sapiens, UniProt P33527); assay: Inhibition of MRP1 (unknown origin) at 1 to 10 uM; conditions: dose 1-10 µM
[8] = Oral bioavailability in Sprague-Dawley rat at 6 mg/kg, administered as single dose by LC-MS/MS analysis; type: ADME, organism-based; conditions: in vivo
Cytochrome P450 2C8 = Cytochrome P450 2C8 (Homo sapiens, UniProt P10632); assay: Inhibition of CYP2C8 (unknown origin); type: ADME
Chain of Cytochrome P450 2C8 (P10632 whole entry): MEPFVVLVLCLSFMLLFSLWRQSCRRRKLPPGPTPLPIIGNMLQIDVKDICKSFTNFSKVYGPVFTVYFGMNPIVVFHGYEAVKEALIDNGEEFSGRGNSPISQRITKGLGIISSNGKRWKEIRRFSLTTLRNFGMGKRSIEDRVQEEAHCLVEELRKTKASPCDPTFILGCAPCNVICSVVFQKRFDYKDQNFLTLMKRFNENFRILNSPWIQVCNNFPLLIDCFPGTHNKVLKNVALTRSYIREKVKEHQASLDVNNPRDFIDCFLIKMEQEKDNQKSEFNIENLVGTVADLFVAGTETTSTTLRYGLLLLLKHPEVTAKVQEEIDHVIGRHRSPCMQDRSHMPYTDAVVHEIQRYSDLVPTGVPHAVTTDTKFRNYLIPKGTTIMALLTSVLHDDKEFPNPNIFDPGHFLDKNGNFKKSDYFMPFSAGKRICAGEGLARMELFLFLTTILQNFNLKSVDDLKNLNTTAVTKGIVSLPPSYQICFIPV

[9] = target: Ileal sodium/bile acid cotransporter (Homo sapiens, UniProt Q12908); assay: Inhibition of ASBT (unknown origin) at 1 to 10 uM; conditions: dose 1-10 µM
Chain of Ileal sodium/bile acid cotransporter (Q12908 whole entry): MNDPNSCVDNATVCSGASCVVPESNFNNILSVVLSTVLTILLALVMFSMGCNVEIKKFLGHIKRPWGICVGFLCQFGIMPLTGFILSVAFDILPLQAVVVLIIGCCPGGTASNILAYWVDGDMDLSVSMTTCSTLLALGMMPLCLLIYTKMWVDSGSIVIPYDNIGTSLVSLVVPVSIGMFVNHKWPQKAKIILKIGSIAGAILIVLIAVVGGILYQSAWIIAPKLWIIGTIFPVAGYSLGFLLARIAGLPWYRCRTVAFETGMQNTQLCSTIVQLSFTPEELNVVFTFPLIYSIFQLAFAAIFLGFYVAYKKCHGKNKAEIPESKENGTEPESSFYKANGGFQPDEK

[10] = Dose normalized AUC (0 to 24 hrs) in Balb/c mouse at 10 mg/kg, po administered as single dose by LC-MS/MS analysis; type: ADME, organism-based; conditions: in vivo
[11] = Clearance (0 to infinity) in Balb/c mouse at 3 mg/kg, iv administered as single bolus dose by LC-MS/MS analysis; type: ADME, organism-based; conditions: in vivo
[12] = Cmax in Sprague-Dawley rat at 6 mg/kg, po administered as single dose by LC-MS/MS analysis; type: ADME, organism-based; parameters: route oral, dose 6 mg/kg; conditions: in vivo
[13] = Volume of distribution at steady state in Sprague-Dawley rat at 2 mg/kg, iv administered as single bolus dose measured upto 24 hrs by LC-MS/MS analysis; type: ADME, organism-based; conditions: in vivo, read-out: Vdss
[14] = Initial plasma concentration in Balb/c mouse at 3 mg/kg, iv administered as single bolus dose by LC-MS/MS analysis; type: ADME, organism-based
[15] = target: Organic anion transporter 3 (Homo sapiens, UniProt Q8TCC7); assay: Inhibition of OAT3 (unknown origin) at 1 to 10 uM; conditions: dose 1-10 µM
[16] = AUC (0 to 24 hrs) in Sprague-Dawley rat at 6 mg/kg, po administered as single dose by LC-MS/MS analysis; type: ADME, organism-based; parameters: time < 24 hr, route oral, dose 6 mg/kg; conditions: in vivo
[17] = target: Solute carrier organic anion transporter family member 1B1 (Homo sapiens, UniProt Q9Y6L6); assay: Inhibition of OATP1B1 (unknown origin) at 1 to 10 uM; conditions: dose 1-10 µM
[18] = Dose normalized AUC (0 to 24 hrs) in Sprague-Dawley rat at 6 mg/kg, po administered as single dose by LC-MS/MS analysis; type: ADME, organism-based; conditions: in vivo
[19] = Dose normalized AUC (0 to 24 hrs) in Beagle dog at 3 mg/kg, iv administered as single bolus dose by LC-MS/MS analysis; type: ADME, organism-based, Canis lupus familiaris; conditions: in vivo
[20] = Elimination half-life in Balb/c mouse at 10 mg/kg, po administered as single dose by LC-MS/MS analysis; type: ADME, organism-based; conditions: in vivo, read-out: beta t1/2 (converted)
Chitotriosidase-1 = Chitotriosidase-1 (Mus musculus, UniProt Q9D7Q1); assay: biochemical
Chain of Chitotriosidase-1 (Q9D7Q1 whole entry): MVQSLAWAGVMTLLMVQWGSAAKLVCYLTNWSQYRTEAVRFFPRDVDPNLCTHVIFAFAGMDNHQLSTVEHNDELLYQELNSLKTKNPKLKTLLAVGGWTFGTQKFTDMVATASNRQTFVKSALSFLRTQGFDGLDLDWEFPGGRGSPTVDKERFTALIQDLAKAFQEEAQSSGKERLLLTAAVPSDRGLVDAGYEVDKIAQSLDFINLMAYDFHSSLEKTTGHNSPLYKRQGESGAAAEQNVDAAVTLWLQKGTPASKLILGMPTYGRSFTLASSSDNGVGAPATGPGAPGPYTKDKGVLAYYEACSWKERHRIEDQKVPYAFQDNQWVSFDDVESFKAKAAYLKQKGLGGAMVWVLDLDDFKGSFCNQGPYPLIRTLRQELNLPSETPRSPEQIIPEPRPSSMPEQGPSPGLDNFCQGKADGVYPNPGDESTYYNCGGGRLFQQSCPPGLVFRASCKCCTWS
Description: Inhibition of recombinant full-length C-terminal his-tagged mouse CHIT1 expressed in CHO-K1 cells assessed as reduction in chitinolytic activity using 4-methylumbelliferyl-beta-D-N,N',N"-triacetylchitotrioside as substrate after 60 mins by fluorometric assay

[21] = target: ATP-binding cassette sub-family C member 3 (Homo sapiens, UniProt O15438); assay: Inhibition of MRP3 (unknown origin) at 1 to 10 uM; conditions: dose 1-10 µM
Chain of ATP-binding cassette sub-family C member 3 (O15438 whole entry): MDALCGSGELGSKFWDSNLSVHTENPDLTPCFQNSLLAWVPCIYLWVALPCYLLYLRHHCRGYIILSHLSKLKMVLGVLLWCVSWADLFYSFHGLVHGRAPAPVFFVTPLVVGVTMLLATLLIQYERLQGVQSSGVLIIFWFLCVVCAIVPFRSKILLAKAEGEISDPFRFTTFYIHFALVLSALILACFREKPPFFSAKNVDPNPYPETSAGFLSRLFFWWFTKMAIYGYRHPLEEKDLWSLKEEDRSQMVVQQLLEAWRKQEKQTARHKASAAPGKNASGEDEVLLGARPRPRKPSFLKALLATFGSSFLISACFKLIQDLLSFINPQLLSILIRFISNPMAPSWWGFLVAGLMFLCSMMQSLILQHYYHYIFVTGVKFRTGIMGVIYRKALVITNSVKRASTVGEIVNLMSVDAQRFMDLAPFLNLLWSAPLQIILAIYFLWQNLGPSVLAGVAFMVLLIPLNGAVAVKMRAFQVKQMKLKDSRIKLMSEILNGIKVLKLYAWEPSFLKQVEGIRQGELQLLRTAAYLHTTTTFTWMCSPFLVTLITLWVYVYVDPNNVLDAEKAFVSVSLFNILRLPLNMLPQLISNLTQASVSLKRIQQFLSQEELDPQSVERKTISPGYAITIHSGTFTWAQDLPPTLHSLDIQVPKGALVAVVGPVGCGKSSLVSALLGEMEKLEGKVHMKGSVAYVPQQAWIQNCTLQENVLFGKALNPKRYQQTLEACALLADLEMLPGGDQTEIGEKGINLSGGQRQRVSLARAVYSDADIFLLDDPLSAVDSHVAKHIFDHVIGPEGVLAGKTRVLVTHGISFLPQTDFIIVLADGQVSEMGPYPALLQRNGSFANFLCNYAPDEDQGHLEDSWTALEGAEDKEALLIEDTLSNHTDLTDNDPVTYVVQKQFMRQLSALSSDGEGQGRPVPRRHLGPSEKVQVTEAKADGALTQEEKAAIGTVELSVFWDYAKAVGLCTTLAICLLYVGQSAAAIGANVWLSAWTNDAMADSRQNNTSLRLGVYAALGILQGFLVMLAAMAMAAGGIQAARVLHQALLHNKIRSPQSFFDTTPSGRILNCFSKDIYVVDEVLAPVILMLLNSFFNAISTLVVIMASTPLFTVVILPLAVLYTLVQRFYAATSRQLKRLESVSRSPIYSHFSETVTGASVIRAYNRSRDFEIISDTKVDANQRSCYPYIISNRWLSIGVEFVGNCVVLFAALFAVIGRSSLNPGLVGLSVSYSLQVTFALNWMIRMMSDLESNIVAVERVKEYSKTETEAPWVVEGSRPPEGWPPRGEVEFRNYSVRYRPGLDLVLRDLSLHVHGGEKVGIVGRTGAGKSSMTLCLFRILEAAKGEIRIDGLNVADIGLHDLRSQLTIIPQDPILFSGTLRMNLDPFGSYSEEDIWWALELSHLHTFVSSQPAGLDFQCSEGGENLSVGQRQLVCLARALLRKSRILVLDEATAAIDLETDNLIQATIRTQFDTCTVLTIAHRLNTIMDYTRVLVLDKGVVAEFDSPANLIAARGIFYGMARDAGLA

[22] = target: ATP-binding cassette sub-family C member 2 (Homo sapiens, UniProt Q92887); assay: Inhibition of MRP2 (unknown origin) at 1 to 10 uM; conditions: dose 1-10 µM
[23] = AUC (0 to 24 hrs) in Beagle dog at 10 mg/kg, po administered as single dose by LC-MS/MS analysis; type: ADME, organism-based, Canis lupus familiaris; parameters: time < 24 hr, route oral, dose 10 mg/kg; conditions: in vivo
[24] = AUC (0 to 24 hrs) in Sprague-Dawley rat at 2 mg/kg, iv administered as single bolus dose by LC-MS/MS analysis; type: ADME, organism-based; parameters: time < 24 hr, route intravenous, dose 2 mg/kg; conditions: in vivo
[25] = Dose normalized AUC (0 to 24 hrs) in Sprague-Dawley rat at 2 mg/kg, iv administered as single bolus dose by LC-MS/MS analysis; type: ADME, organism-based; conditions: in vivo
[26] = Elimination half-life in Beagle dog at 10 mg/kg, po administered as single dose by LC-MS/MS analysis; type: ADME, organism-based, Canis lupus familiaris; conditions: in vivo, read-out: beta t1/2 (converted)
[27] = target: Solute carrier family 22 member 1 (Homo sapiens, UniProt O15245); assay: Inhibition of OCT1 (unknown origin) at 1 to 10 uM; conditions: dose 1-10 µM
Chain of Solute carrier family 22 member 1 (O15245 whole entry): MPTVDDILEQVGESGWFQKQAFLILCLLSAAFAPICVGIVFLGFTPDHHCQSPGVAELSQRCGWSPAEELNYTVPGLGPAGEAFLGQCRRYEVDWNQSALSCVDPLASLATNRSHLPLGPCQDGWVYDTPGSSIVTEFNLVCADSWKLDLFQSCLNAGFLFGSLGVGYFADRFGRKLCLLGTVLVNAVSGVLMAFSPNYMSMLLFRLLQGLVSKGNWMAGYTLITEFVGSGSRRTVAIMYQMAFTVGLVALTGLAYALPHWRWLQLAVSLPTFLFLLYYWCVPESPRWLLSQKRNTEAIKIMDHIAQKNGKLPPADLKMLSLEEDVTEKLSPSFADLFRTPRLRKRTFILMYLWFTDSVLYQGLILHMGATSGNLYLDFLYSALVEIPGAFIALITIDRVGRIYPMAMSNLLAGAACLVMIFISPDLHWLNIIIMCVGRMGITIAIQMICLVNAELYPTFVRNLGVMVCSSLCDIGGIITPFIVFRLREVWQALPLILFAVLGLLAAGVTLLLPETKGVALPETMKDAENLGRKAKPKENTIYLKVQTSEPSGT

[28] = Elimination half-life in Sprague-Dawley rat at 6 mg/kg, po administered as single dose by LC-MS/MS analysis; type: ADME, organism-based; conditions: in vivo, read-out: beta t1/2 (converted)
[29] = Tmax in Beagle dog at 10 mg/kg, po administered as single dose by LC-MS/MS analysis; type: ADME, organism-based, Canis lupus familiaris; conditions: in vivo
[30] = Volume of distribution at steady state in Beagle dog at 3 mg/kg, iv administered as single bolus dose measured upto 24 hrs by LC-MS/MS analysis; type: ADME, organism-based, Canis lupus familiaris; conditions: in vivo, read-out: Vdss
Mus musculus [31] = species on record: Mus musculus; conditions: C57BL/6N, dose 30.0 mg/kg; remark: listed apart in the source
[32] = Elimination half-life in Balb/c mouse at 3 mg/kg, iv administered as single bolus dose by LC-MS/MS analysis; type: ADME, organism-based; conditions: in vivo, read-out: beta t1/2 (converted)
[33] = Oral bioavailability in Beagle dog at 10 mg/kg, administered as single dose by LC-MS/MS analysis; type: ADME, organism-based, Canis lupus familiaris; conditions: in vivo
Cytochrome P450 2C19 = Cytochrome P450 2C19 (Homo sapiens, UniProt P33261); assay: Inhibition of CYP2C19 (unknown origin); type: ADME
[34] = Clearance (0 to infinity) in Sprague-Dawley rat at 2 mg/kg, iv administered as single bolus dose by LC-MS/MS analysis; type: ADME, organism-based; conditions: in vivo
[35] = Elimination half-life in Sprague-Dawley rat at 2 mg/kg, iv administered as single bolus dose by LC-MS/MS analysis; type: ADME, organism-based; conditions: in vivo, read-out: beta t1/2 (converted)
[36] = AUC (0 to 24 hrs) in Balb/c mouse at 3 mg/kg, iv administered as single bolus dose by LC-MS/MS analysis; type: ADME, organism-based; parameters: time < 24 hr, route intravenous, dose 3 mg/kg; conditions: in vivo
[37] = target: Acidic mammalian chitinase (Mus musculus, UniProt Q91XA9); assay: Inhibition of full-length C-terminal his-tagged mouse AMCase expressed in expressed in CHO-K1 cells assessed as reduction in chitinolytic activity using 4-methylumbelliferyl-beta-D-N,N'-diacetylchitobioside hydrate as substrate after 60 mins by fluorometric assay; type: cell-based
Chain of Acidic mammalian chitinase (Q91XA9 whole entry): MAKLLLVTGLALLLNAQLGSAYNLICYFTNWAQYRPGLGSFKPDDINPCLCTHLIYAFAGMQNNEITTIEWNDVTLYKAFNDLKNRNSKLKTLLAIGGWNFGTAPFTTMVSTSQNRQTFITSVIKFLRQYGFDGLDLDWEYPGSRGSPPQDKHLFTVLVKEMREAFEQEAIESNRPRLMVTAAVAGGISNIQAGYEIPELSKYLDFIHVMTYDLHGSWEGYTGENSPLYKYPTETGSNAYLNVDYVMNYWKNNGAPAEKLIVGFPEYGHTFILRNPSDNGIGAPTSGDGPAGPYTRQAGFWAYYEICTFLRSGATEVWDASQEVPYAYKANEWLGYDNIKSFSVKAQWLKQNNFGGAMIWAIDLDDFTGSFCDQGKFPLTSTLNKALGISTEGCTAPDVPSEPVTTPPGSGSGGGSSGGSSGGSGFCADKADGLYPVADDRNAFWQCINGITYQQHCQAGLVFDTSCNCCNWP

[38] = In-vivo inhibition of CHIT1 in C57BL/6N mouse assessed as decrease in chitinolytic activity in plasma at 30 mg/kg, po qd administered via gavage measured up to 12 hrs relative to control; type: functional; conditions: time hrs <=12
Cytochrome P450 1A2 = Cytochrome P450 1A2 (Homo sapiens, UniProt P05177); assay: Inhibition of CYP1A2 (unknown origin); type: ADME

Cmax [2]: 3420 ng/mL
AUC(0-t) at 24 h [4]: 31000 ng·h/mL
Drug uptake [6]: Active
inhibition (INH) [7]: Not Active
bioavailability [8]: 107%
inhibition (INH) (Cytochrome P450 2C8): Not Active
inhibition (INH) [9]: Not Active
AUC/dose [10]: 2.22 kg·mg·h/L/mg
clearance [11]: 5.83 mL/min/kg
Cmax [12]: 2210 ng/mL
Vd [13]: 1.82 L/kg
C0 [14]: 3970 ng/mL
inhibition (INH) [15]: Not Active
AUC(0-t) at 24 h [16]: 20300 ng·h/mL
inhibition (INH) [17]: Not Active
AUC/dose [18]: 3.38 kg·mg·h/L/mg
AUC/dose [19]: 10.34 kg·mg·h/L/mg
half-life [20]: 1.88 h
IC50 (Chitotriosidase-1): 28 nM
Ki (Chitotriosidase-1): 26 nM
inhibition (INH) [21]: Not Active
inhibition (INH) [22]: Not Active
AUC(0-t) at 24 h [23]: 94100 ng·h/mL
AUC(0-t) at 24 h [24]: 5560 ng·h/mL
AUC/dose [25]: 2.78 kg·mg·h/L/mg
half-life [26]: 22.9 h
inhibition (INH) [27]: Not Active
half-life [28]: 4.47 h
Tmax [29]: 0.5 h
Vd [30]: 0.96 L/kg
half-life [32]: 2.09 h
bioavailability [33]: 91.4%
inhibition (INH) (Cytochrome P450 2C19): Not Active
clearance [34]: 5.67 mL/min/kg
half-life [35]: 4.49 h
AUC(0-t) at 24 h [36]: 8600 ng·h/mL
IC50 [37]: 7.8 nM
Ki [37]: 5.7 nM
inhibition (INH) (Cytochrome P450 1A2): Not Active
SMILES: C[C@H]1CN(C2CCN(c3nc(N)n[nH]3)CC2)[C@@H](Cc2ccc(Cl)cc2)CO1 [5-(4-((2S,5S)-5-(4-CHLOROBENZYL)-2-METHYLMORPHOLINO)PIPERIDIN-1-YL)-1H-1,2,4-TRIAZOL-3-AMINE]
inhibition (Mus musculus [1]): Active
inhibition (Mus musculus [3]): Active
IC50 [5]: 23000 nM
inhibition (Mus musculus [31]): Active
inhibition in vivo at 30 mg/kg [38]: 70%
